From patent publication US11578084B2, “Condensed ring compounds having dopamine D3 receptor antagonistic effect” (Shionogi & Co., Ltd., priority 2018, dated 2023)

Experiments:
[1] = target: human recombinant dopamine D2 receptor (Homo sapiens (Human), UniProt P14416); assay: Test of binding inhibition for dopamine D2 receptor ([3H]-Methylspiperone SPA); settings: Jump-In HEK cell membranes, 1.2 nM [3H]-Methylspiperone, 120 min at 25° C.; read-out: hD2_Ki
Protocol: (§1) (Experimental Conditions)
Cell membranes: Jump-In HEK cell membranes expressing human recombinant dopamine D2 receptor (2 μg/well)
(§2) Non-specific ligand: (final concentration) 10 μM Butaclamol [(+)-Butaclamol Hydrochloride, D033, Sigma]
(§3) SPA beads solution: SPA beads [WGA PVT SPA Scintillation Beads, RPNQ0001 (500 mg), RPNQ0060 (2 g), PerkinElmer] (0.2 mg/well)
(§4) Incubation time and temperature: 120 min at 25° C.
(§5) Butaclamol or the compounds of the present invention were weighed and DMSO was added to make a 10 mM solution. This solution was diluted to each concentration.
(§6) SPA beads were weighed and stirred in water to make a 50 mg/mL solution. Using this solution, a mixture with the cell membranes was prepared.
Jump-In HEK Cell membranes (final reaction amount: 2 μg protein/well), the SPA beads solution (final reaction amount: 0.2 mg/well) and the buffer solution were mixed, and the mixed solution was left still for 1 hour or more at 4° C. Then, 50 μL of the mixture was added to each well of the plate. […] Non-specific binding was calculated based on the radioactivity of [^3H]-Methylspiperone in the presence of 10 μM non-labeled Butaclamol. The total binding was calculated using the radioactivity of [^3H]-Methylspiperone in the absence of the compounds of the present invention (Vehicle). The Ki values were calculated from dose-response curves.
(§7) Binding activities of the compounds of the present invention were calculated from the following Binding Inhibition Rate (%): Inhibition Rate (%)=[1−(c−a)/(b−a)]×100 • a: Average cpm of non-specific binding • b: Average cpm of total binding • c: Cpm in the presence of each test compound

[2] = target: human recombinant dopamine D3 receptor (Homo sapiens (Human), UniProt P35462); assay: Test of binding inhibition for dopamine D3 receptor ([3H]-Methylspiperone SPA); settings: Jump-In HEK cell membranes, 2 nM [3H]-Methylspiperone, 120 min at 25° C.; read-out: hD3_Ki
Sequence of human recombinant dopamine D3 receptor (P35462 whole entry): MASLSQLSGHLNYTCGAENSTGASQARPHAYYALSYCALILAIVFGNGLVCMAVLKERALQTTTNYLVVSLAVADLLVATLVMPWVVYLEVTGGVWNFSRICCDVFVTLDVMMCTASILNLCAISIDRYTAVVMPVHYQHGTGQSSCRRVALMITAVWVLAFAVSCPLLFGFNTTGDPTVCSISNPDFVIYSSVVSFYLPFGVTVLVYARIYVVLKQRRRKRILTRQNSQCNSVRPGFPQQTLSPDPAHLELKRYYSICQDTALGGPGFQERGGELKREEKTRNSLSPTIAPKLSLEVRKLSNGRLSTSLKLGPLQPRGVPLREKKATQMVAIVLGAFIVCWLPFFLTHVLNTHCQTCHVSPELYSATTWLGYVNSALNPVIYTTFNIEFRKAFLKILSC
Protocol: as §1
Cell membranes: Jump-In HEK cell membranes expressing human recombinant dopamine D3 receptor (4 μg/well)
as §2, §3, §4, §5
[^3H]-Methylspiperone was weighed and the buffer solution was added to make a 6 nM solution.
as §6
Jump-In HEK Cell membranes (final reaction amount: 4 μg protein/well), the SPA beads solution (final reaction amount: 0.2 mg/well) and the buffer solution were mixed and the mixed solution was left still for 1 hour or more at 4° C. Then, 50 μL of the mixture was added to each well of the plate. In addition, 25 μL of 6 nM [^3H]-Methylspiperone (final concentration: 2 nM) was added to each well. […] Non-specific binding was calculated based on the radioactivity of [^3H]-Methylspiperone in the presence of 10 μM non-labeled Butaclamol. The total binding was calculated using the radioactivity of [H]-Methylspiperone in the absence of the compounds of the present invention (vehicle). The Ki values were calculated from dose-response curves.
as §7

Sequence of human recombinant dopamine D2 receptor (P14416 whole entry): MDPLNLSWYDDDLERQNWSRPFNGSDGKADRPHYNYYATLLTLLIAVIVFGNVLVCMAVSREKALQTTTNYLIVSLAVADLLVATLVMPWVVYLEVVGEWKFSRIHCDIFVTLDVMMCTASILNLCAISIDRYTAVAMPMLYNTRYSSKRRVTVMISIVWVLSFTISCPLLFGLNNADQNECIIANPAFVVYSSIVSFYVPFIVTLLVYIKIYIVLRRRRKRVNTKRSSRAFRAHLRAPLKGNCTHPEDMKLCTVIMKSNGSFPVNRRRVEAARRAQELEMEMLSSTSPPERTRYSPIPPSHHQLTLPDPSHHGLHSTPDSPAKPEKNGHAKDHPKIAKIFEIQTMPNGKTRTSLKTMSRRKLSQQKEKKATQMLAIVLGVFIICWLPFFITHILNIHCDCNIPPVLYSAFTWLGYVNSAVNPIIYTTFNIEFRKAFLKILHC

SMILES	Ki [1] [nM]	Ki [2] [nM]
CC(Oc1ccc2c(n1)CCN(CC[C@H]1CC[C@H](NC(=O)c3cccc4nn(C)cc34)CC1)CC2)C(F)F (single isomer, unassigned) [Example I-123]	200	0.034
CC(Oc1ccc2c(n1)CCN(CC[C@H]1CC[C@H](NC(=O)c3cccc4nn(C)cc34)CC1)CC2)C(F)F (single isomer, unassigned) [Example I-124]	180	0.072
Cc1ncc(CC(=O)NC2CC3CCC(C2)N3CCN2CCc3sc(OCC(F)(F)F)nc3C2)s1 (single isomer, unassigned) [Example I-134]	300	0.17
Cn1cc2ccc(C(=O)N[C@H]3CC[C@H](CCN4CCc5nc(OCC(C)(F)F)sc5CC4)CC3)cc2n1 [Example I-050]	> 1800	0.16
CC(F)(F)COc1nc2c(s1)CCN(CC[C@H]1CC[C@H](NC(=O)c3cnn4ccccc34)CC1)CC2 [Example I-051]	1100	0.43
Cc1cc(CC(=O)N[C@H]2CC[C@H](CCN3CCc4nc(OCC(C)(F)F)sc4CC3)CC2)on1 [Example I-052]	1700	0.083
Cc1cc(OCC(=O)N[C@H]2CC[C@H](CCN3CCc4nc(OCC(C)(F)F)sc4CC3)CC2)no1 [Example I-053]	630	0.2
Cn1nnc2cccc(C(=O)N[C@H]3CC[C@H](CCN4CCc5nc(OCC(C)(F)F)sc5CC4)CC3)c21 [Example I-054]	270	0.13
Cn1ccc2c(C(=O)N[C@H]3CC[C@H](CCN4CCc5nc(OCC(C)(F)F)sc5CC4)CC3)cccc2c1=O [Example I-055]	> 1800	0.19
Cn1cc2c(C(=O)N[C@H]3CC[C@H](CCN4CCc5ccc(OC6CCC(F)(F)C6)nc5CC4)CC3)cccc2n1 (some centres unmarked) [Example I-057]	770	0.18
Cc1cc2c(C(=O)N[C@H]3CC[C@](F)(CCN4CCc5nc(OCC(F)F)sc5CC4)CC3)cccn2n1 [Example I-058]	> 1700	0.47
Cc1ncc(/C=C/C(=O)N[C@H]2CC[C@](F)(CCN3CCc4nc(OCC(F)F)sc4CC3)CC2)cn1 [Example I-061]	> 1800	0.65
CC(C)Oc1ccc2c(n1)CCN(CC[C@H]1CC[C@H](NC(=O)c3cnn4ccccc34)CC1)CC2 [Example I-062]	1100	1
CC(C)Oc1ccc2c(n1)CCN(CC[C@H]1CC[C@H](NC(=O)c3cccc4c(=O)n(C)ccc34)CC1)CC2 [Example I-063]	1700	0.62
Cc1ncc(CC(=O)N[C@H]2CC[C@H](CCN3CCc4nc(OCC(C)(F)F)sc4CC3)OC2)s1 [Example I-064]	950	0.3
Cc1c(F)cccc1C(=O)N[C@H]1CC[C@H](CCN2CCc3nc(OCC(C)(F)F)sc3CC2)OC1 [Example I-065]	340	0.26
Cn1ncc2ccc(C(=O)N[C@H]3CC[C@H](CCN4CCc5nc(OCC(C)(F)F)sc5CC4)OC3)cc21 [Example I-067]	370	0.16
Cc1ncc(OCC(=O)N[C@H]2CC[C@H](CCN3CCc4nc(OCC(C)(F)F)sc4CC3)OC2)cn1 [Example I-068]	870	0.47
Cc1nc(CC(=O)N[C@H]2CC[C@H](CCN3CCc4sc(C5CC(F)(F)C5)nc4C3)CC2)no1 [Example I-070]	780	0.17
CN1Cc2c(C(=O)N[C@H]3CC[C@](F)(CCN4CCc5nc(OCC(F)F)sc5CC4)CC3)cccc2C1=O [Example I-072]	> 1700	0.13
Cc1nc(CC(=O)N[C@H]2CC[C@](F)(CCN3CCc4ccc(OCC(C)(F)F)nc4CC3)CC2)no1 [Example I-078]	> 1800	0.13
Cc1cc(OCC(=O)N[C@H]2CC[C@](F)(CCN3CCc4ccc(OCC(C)(F)F)nc4CC3)CC2)no1 [Example I-079]	> 1800	0.07
Cc1cc(OCC(=O)N[C@H]2CC[C@](F)(CCN3CCc4ccc(OCC(F)F)nc4CC3)CC2)no1 [Example I-084]	> 2200	0.25
COc1cc(CC(=O)N[C@H]2CC[C@](F)(CCN3CCc4ccc(OCC(F)F)nc4CC3)CC2)on1 [Example I-085]	> 2200	0.044

SMILES	Ki [1] [nM]	Ki [2] [nM]
Cc1cnc(CC(=O)N[C@H]2CC[C@](F)(CCN3CCc4ccc(OCC(F)F)nc4CC3)CC2)o1 [Example I-086]	> 2200	0.52
Cn1cc2c(C(=O)N[C@H]3CC[C@H](CCN4CCc5ccc(OC6CCC6)nc5CC4)CC3)cccc2n1 [Example I-089]	> 2200	0.22
Cc1cnc(CC(=O)N[C@H]2CC[C@H](CCN3CCc4ccc(OC5CCC5)nc4CC3)CC2)o1 [Example I-090]	> 2400	0.65
Cc1ncccc1C(=O)N[C@H]1CC[C@H](CCN2CCc3ccc(OCC(F)F)nc3CC2)CC1 [Example I-091]	940	0.28
CCn1c(C(=O)N[C@H]2CC[C@H](CCN3CCc4ccc(OCC(F)F)nc4CC3)CC2)cccc1=O [Example I-092]	310	0.16
Cc1nnc(CC(=O)N[C@H]2CC[C@H](CCN3CCc4ccc(OCC(F)F)nc4CC3)CC2)o1 [Example I-093]	1200	0.17
Cc1cc(CC(=O)N[C@H]2CC[C@H](CCN3CCc4ccc(OCC(F)F)nc4CC3)CC2)no1 [Example I-094]	910	0.3
Cn1cc(CC(=O)N[C@H]2CC[C@H](CCN3CCc4ccc(OCC(F)F)nc4CC3)CC2)cn1 [Example I-095]	1400	0.18
Cn1cc(OCC(=O)N[C@H]2CC[C@H](CCN3CCc4ccc(OCC(F)F)nc4CC3)CC2)cn1 [Example I-096]	570	0.18
Cc1ncc(OCC(=O)N[C@H]2CC[C@H](CCN3CCc4ccc(OCC(F)F)nc4CC3)CC2)cn1 [Example I-097]	900	0.11
Cc1ncc(/C=C/C(=O)N[C@H]2CC[C@H](CCN3CCc4ccc(OCC(F)F)nc4CC3)CC2)cn1 [Example I-098]	350	0.17
Cn1ncc(CC(=O)N[C@H]2CC[C@](F)(CCN3CCc4ccc(OC5CCC5)nc4CC3)CC2)n1 [Example I-106]	> 2300	0.54
Cc1ncc(CC(=O)N[C@H]2CC[C@H](CCN3CCc4nc(OCC(F)(F)F)sc4CC3)CC2)cn1 [Example I-110]	460	0.17
Cc1nnc(CC(=O)N[C@H]2CC[C@](F)(CCN3CCc4nc(OCCC(F)(F)F)sc4CC3)CC2)s1 [Example I-115]	> 2200	0.63
Cc1ncc(/C=C/C(=O)N[C@H]2CC[C@](F)(CCN3CCc4nc(OCCC(F)(F)F)sc4CC3)CC2)cn1 [Example I-116]	> 2200	1
Cc1cnc(CC(=O)N[C@H]2CC[C@](F)(CCN3CCc4nc(OCCC(F)(F)F)sc4CC3)CC2)o1 [Example I-117]	> 2200	0.55
Cc1cnc(OCC(=O)N[C@H]2CC[C@](F)(CCN3CCc4nc(OCCC(F)(F)F)sc4CC3)CC2)cn1 [Example I-118]	> 2200	0.74
C[C@@H](Oc1nc2c(s1)CCN(CC[C@H]1CC[C@H](NC(=O)COc3cnn(C)c3)CC1)CC2)C(F)(F)F [Example I-120]	840	0.84
O=C(N[C@H]1CC[C@H](CCN2CCc3ccc(OCC(F)F)nc3CC2)CC1)c1cccnc1C(F)F [Example I-121]	650	0.26
Cn1c(C(=O)N[C@H]2CC[C@H](CCN3CCc4nc(OCC(F)(F)F)sc4CC3)CC2)ccc(F)c1=O [Example I-122]	360	0.24
Cc1nnc(CC(=O)N[C@H]2CC[C@H](CCN3CCc4nc(O[C@H](C)C(F)(F)F)sc4CC3)CC2)s1 [Example I-125]	1100	0.61
Cc1nnc(CC(=O)N[C@H]2CC[C@](F)(CCN3CCc4nc(O[C@H](C)C(F)(F)F)sc4CC3)CC2)s1 [Example I-126]	> 2300	0.92
Cc1ncc(OCC(=O)N[C@H]2CC[C@H](CCN3CCc4ccc(O[C@H](C)C(F)(F)F)nc4CC3)CC2)cn1 [Example I-127]	410	0.12
Cn1cc(OCC(=O)N[C@H]2CC[C@H](CCN3CCc4ccc(CCC(F)(F)F)nc4CC3)CC2)cn1 [I′-6]		0.33
